Measurements: ChEMBL document CHEMBL5338707, “Design, synthesis and bioactivity evaluation of favorable evodiamine derivative scaffold for developing cancer therapy” (Eur J Med Chem, 2022)
The source made the active and inactive calls. No cut-off for these calls is given here.

What was measured:
MGC-803 [1] = experiment: Antitumor activity against human MGC-803 cells xenografted in BALB/C mouse assessed as tumor growth inhibition at 0.5 mg/kg, ip administered once a day for 17 days relative to control; assay type: functional; settings: MGC-803, 408 h, time 17 day, read-out: TGI
SGC-7901 [2] = experiment: Induction of apoptosis in human SGC-7901 cells assessed as necrotic cells at 96 nM incubated for 24 hrs by AnnexinV-FITC/PI staining based flow cytometric analysis (reference value: 0.63%); assay type: functional
MGC-803 [3] = experiment: Induction of apoptosis in human MGC-803 cells assessed as necrotic cells at 96 nM incubated for 24 hrs by AnnexinV-FITC/PI staining based flow cytometric analysis (reference value: 0.53%); assay type: functional
SGC-7901 [4] = experiment: Induction of apoptosis in human SGC-7901 cells assessed as early apoptotic cells at 96 nM incubated for 24 hrs by AnnexinV-FITC/PI staining based flow cytometric analysis (reference value: 0.47%); assay type: functional
MGC-803 [5] = experiment: Cell cycle arrest in human MGC-803 cells assessed as accumulation of cells at G2/M phase at 48 nM incubated for 24 hrs by PI staining based flow cytometric analysis (Rvb =15.42%); assay type: functional
MGC-803 [6] = experiment: Induction of apoptosis in human MGC-803 cells assessed as late apoptotic cells at 96 nM incubated for 24 hrs by AnnexinV-FITC/PI staining based flow cytometric analysis (reference value: 0.52%); assay type: functional
SGC-7901 [7] = experiment: Cell cycle arrest in human SGC-7901 cells assessed as accumulation of cells at S phase at 48 nM incubated for 24 hrs by PI staining based flow cytometric analysis (Rvb =18.41%); assay type: functional
SGC-7901 [8] = experiment: Cell cycle arrest in human SGC-7901 cells assessed as accumulation of cells at G0/G1 phase at 48 nM incubated for 24 hrs by PI staining based flow cytometric analysis (Rvb =84.12%); assay type: functional
SGC-7901 [9] = experiment: Induction of apoptosis in human SGC-7901 cells assessed as viable cells at 96 nM incubated for 24 hrs by AnnexinV-FITC/PI staining based flow cytometric analysis (reference value: 96.94%); assay type: functional; settings: read-out: Activity
MGC-803 [10] = experiment: Induction of apoptosis in human MGC-803 cells assessed as early apoptotic cells at 96 nM incubated for 24 hrs by AnnexinV-FITC/PI staining based flow cytometric analysis (reference value: 0.38%); assay type: functional
MGC-803 [11] = experiment: Cell cycle arrest in human MGC-803 cells assessed as accumulation of cells at G0/G1 phase at 48 nM incubated for 24 hrs by PI staining based flow cytometric analysis (Rvb =76.60%); assay type: functional
[12] = Toxicity in BALB/C mouse xenografted with human MGC-803 cells assessed as decrease in body weight at 0.5 mg/kg, ip administered once daily for 17 days; assay type: organism-based; settings: in vivo, 408 h, time 17 day
MGC-803 [13] = experiment: Cell cycle arrest in human MGC-803 cells assessed as accumulation of cells at S phase at 48 nM incubated for 24 hrs by PI staining based flow cytometric analysis (Rvb =7.84%); assay type: functional
SGC-7901 [14] = experiment: Cell cycle arrest in human SGC-7901 cells assessed as accumulation of cells at G2/M phase at 48 nM incubated for 24 hrs by PI staining based flow cytometric analysis (Rvb =18.84%); assay type: functional
SGC-7901 [15] = experiment: Induction of apoptosis in human SGC-7901 cells assessed as late apoptotic cells at 96 nM incubated for 24 hrs by AnnexinV-FITC/PI staining based flow cytometric analysis (reference value: 2.00%); assay type: functional
MGC-803 [16] = experiment: Induction of apoptosis in human MGC-803 cells assessed as viable cells at 96 nM incubated for 24 hrs by AnnexinV-FITC/PI staining based flow cytometric analysis (reference value: 98.59%); assay type: functional; settings: read-out: Activity
[17] = target: T1, DNA topoisomerase 1 (Homo sapiens) (UniProt P11387); experiment: Inhibition of Topoisomerase 1 (unknown origin) at 50 uM incubated for 15 mins by electrophoretic analysis
T1 sequence (whole entry): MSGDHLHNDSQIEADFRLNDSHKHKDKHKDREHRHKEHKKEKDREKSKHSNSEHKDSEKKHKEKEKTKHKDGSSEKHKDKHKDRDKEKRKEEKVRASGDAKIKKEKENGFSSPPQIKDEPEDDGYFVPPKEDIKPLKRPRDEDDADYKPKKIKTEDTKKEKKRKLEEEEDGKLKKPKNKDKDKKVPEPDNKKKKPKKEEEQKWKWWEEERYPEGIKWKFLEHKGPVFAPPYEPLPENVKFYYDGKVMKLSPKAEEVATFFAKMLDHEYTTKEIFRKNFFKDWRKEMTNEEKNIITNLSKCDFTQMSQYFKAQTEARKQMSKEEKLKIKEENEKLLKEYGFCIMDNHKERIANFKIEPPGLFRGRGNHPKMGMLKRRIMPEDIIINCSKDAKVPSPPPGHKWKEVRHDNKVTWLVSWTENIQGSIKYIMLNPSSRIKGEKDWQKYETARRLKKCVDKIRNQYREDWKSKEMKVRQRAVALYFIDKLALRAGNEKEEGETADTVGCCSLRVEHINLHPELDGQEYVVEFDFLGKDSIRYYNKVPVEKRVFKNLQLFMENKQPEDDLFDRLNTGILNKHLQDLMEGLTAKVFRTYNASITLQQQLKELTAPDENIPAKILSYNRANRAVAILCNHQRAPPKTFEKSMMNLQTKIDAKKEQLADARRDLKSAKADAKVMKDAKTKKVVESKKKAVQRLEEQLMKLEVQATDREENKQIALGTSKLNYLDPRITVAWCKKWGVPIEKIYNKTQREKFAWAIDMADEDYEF

[18] = target: T1, DNA topoisomerase 1 (Homo sapiens); experiment: Inhibition of Topoisomerase 1 (unknown origin) at 100 uM incubated for 15 mins by electrophoretic analysis
[19] = target: T1, DNA topoisomerase 1 (Homo sapiens); experiment: Inhibition of Topoisomerase 1 (unknown origin) at 25 uM incubated for 15 mins by electrophoretic analysis relative to control

CC[C@@]1(O)C(=O)OCc2c1cc1n(c2=O)Cc2cc3c(CN(C)C)c(O)ccc3nc2-1 [TOPOTECAN]
inhibition in vivo at 0.5 mg/kg (MGC-803 [1]): 67% | Activity (SGC-7901 [2]): 1.22% | Activity (MGC-803 [3]): 1.75% | Activity (SGC-7901 [4]): 0.8% | Activity (MGC-803 [5]): 13.27% | Activity (MGC-803 [6]): 15.95% | Activity (SGC-7901 [7]): 18.52% | Activity (SGC-7901 [8]): 58.3% | viability at 0.096 µM (SGC-7901 [9]): 88.1% | Activity (MGC-803 [10]): 5.23% | Activity (MGC-803 [11]): 79.72% | Activity [12]: Toxic | Activity (MGC-803 [13]): 6.84% | Activity (SGC-7901 [14]): 22.72% | Activity (SGC-7901 [15]): 9.93% | viability at 0.096 µM (MGC-803 [16]): 77%

Cc1ccc2c(c1)C(=O)N1CCc3c([nH]c4ccc(C)cc34)C1N2c1cccc(F)c1 (centres undefined)
inhibition [17]: Active | inhibition [18]: Active | inhibition [19]: 46.2%
